What was measured:
[1] = biological target: T1, human glucose-6-phosphate isomerase (GPI) (Homo sapiens, UniProt P06744); assay: G6PDH-coupled kinetic assay, dose response; type: biochemical
[2] = biological target: T1, human glucose-6-phosphate isomerase (GPI); assay: label-free MST; type: binding
[3] = biological target: T1, human glucose-6-phosphate isomerase (GPI); assay: Michaelis-Menten kinetics, G6PDH-coupled assay; type: biochemical
[4] = biological target: T2, human triosephosphate isomerase (TPI) (Homo sapiens, UniProt P60174); assay: GAPDH-coupled kinetic assay, dose response; type: biochemical
T2 sequence (P60174 whole entry): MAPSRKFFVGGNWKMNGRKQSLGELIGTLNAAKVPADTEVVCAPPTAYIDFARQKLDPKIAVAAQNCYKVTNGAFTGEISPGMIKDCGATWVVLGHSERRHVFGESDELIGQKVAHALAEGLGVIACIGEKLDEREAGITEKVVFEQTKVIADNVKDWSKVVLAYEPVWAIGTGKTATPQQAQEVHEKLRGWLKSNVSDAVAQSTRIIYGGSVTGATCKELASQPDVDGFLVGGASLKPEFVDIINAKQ

[5] = biological target: T2, human triosephosphate isomerase (TPI); assay: label-free MST; type: binding
[6] = biological target: T2, human triosephosphate isomerase (TPI); assay: Michaelis-Menten kinetics, GAPDH-coupled assay; type: biochemical

| SMILES | EC50 [1] [mM] | Kd [2] [mM] | Ki [3] [mM] | EC50 [4] [mM] | Kd [5] [mM] | Ki [6] [mM] |
| --- | --- | --- | --- | --- | --- | --- |
| Nc1ncnc2c1ncn2[C@@H]1O[C@H](COP(=O)(O)OP(=O)(O)O)[C@@H](O)[C@H]1O [ADP] | 8.66 ± 1.37 | 19.3 ± 0.96 | 3.97 | – | – | – |
| C/C(=C/C(=O)O)C(=O)O [Citraconate] | 8.05 ± 2.34 | 20.1 ± 2.03 | 2.17 | – | – | – |
| O=C(CO)COP(=O)(O)O [Dihydroxyacetone phosphate] | 8.24 ± 1.94 | 17.5 ± 0.98 | 4.47 | – | – | – |
| O=P(O)(O)OC(CO)CO [Glycerol-2-phosphate] | – | – | – | 7.31 ± 1.22 | 5.31 ± 1.07 | 1.89 |
| O=P(O)(O)OC[C@H](O)CO [Glycerol-3-phosphate] | – | – | – | 8.65 ± 1.49 | 6.79 ± 2.3 | 2.04 |
| NCCc1c[nH]cn1 [Histamine] | 7.35 ± 1.26 | 13.1 ± 0.64 | 9.25 | – | – | – |
| NO [Hydroxylamine] | 14.6 ± 1.99 | – | 21.1 | – | – | – |
| O=C(O)/C=C\C(=O)O [Maleate] | 9.48 ± 2.85 | 14.4 ± 2.07 | 7.15 | – | – | – |
| CC(C(=O)O)C(=O)O [Methylmalonate] | – | – | – | 16.3 ± 2.54 | 12.2 ± 1.9 | 17.3 |
| O=C(O)C(=O)O [Oxalate] | – | – | – | 12.6 ± 0.76 | 19.1 ± 1.38 | 27.3 |
| C=C(OP(=O)(O)O)C(=O)O [Phosphoenolpyruvate] | 11.8 ± 1.33 | 11.1 ± 1.44 | 5.61 | – | – | – |

From paper doi:10.1101/2024.09.26.610356v2 (biorxiv, 2024)
